Values quoted from earlier work as cited in patent publication US20100311674A1, “PHARMACEUTICAL COMPOSITIONS WITH A MECHANISM OF MULTI-TARGET RECEPTOR RETROACTION FOR TREATING DEPRESSION” (Yu-Fen Chi, priority 2007, published 2010).

Legend:
[1] = cited from earlier work
[2] = in the human body; cited from earlier work

SMILES | Anti-depression function (in words) ([1]; clinical trials) | Side effect (in words) ([1]; in vivo) | Conversion rate of glycyrrhizic acid to glycyrrhetinic acid [2] [%]
COc1ccc(C2CNC(=O)C2)cc1OC1CCCC1 (stereo not drawn) [Rolipram] | obvious anti-depression function | severe emesis | 
CC1(C)[C@@H](O[C@H]2O[C@H](C(=O)O)[C@@H](O)[C@H](O)[C@H]2O[C@@H]2O[C@H](C(=O)O)[C@@H](O)[C@H](O)[C@H]2O)CC[C@]2(C)[C@H]3C(=O)C=C4[C@@H]5C[C@@](C)(C(=O)O)CC[C@]5(C)CC[C@@]4(C)[C@]3(C)CC[C@@H]12 [glycyrrhizic acid] |  |  | ~100
